US20150311441A1, “METAL COMPLEX COMPOUND, AND ORGANIC LIGHT-EMITTING ELEMENT AND DISPLAY DEVICE CONTAINING THE SAME” (CANON KABUSHIKI KAISHA, priority 2014, published 2015)

Test: Stability to water of a deposition film
Conditions: for State of the film after 5 min (stability to water): 100 nm deposition film on glass substrate, water dropped on film, state after 5 minutes measured with thickness profiler (Alpha-Step); for Dissolution of the film in water: deposition film in contact with water, summary of the Table 1 test
Procedure: The stability to water of the metal complex compound was examined. A deposition film was formed to a thickness of 100 nm on a glass substrate, and water was dropped on the deposition film. After 5 minutes, the state of the film was measured with a thickness profiler (Alpha-Step). Also, the stability to water of lithium fluoride and cesium fluoride, which are generally used as an electron injection material, were examined for comparison.

Row | SMILES | State of the film after 5 min (stability to water) | Dissolution of the film in water
1 | [Cs+].[F-] [compound 2, cesium fluoride] | Dissolved | dissolved in water immediately
2 | [F-].[Li+] [compound 1, lithium fluoride] | Dissolved | dissolved in water immediately
